Test results: BindingDB's records for doi:10.1016/j.bmcl.2006.05.062 (AstraZeneca, 2006)

Assay: Inhibition of COX1-mediated platelet aggregation

IC50: 40 nM
Structure (SMILES): COc1ccc2c(c1)c(CC(=O)O)c(C)n2-c1ccnc2cc(Cl)ccc12 [2-(1-(7-chloroquinolin-4-yl)-5-methoxy-2-methyl-1H-indol-3-yl)acetic acid]
